From patent US4996236A, “Therapeutic composition for hepatic encephalopathy” (Takeda Chemical Industries, Ltd., priority 1988, dated 1991)

Key:
[1] = Acute oral toxicity in rats; conditions: rat, in vivo, rats (Wistar)
[2] = Blood ammonia level-lowering effect in rats on high-protein diet; assay type: in vivo, rat (male SD); conditions: for Blood ammonia level: 7 days, mean ± S.D., 5 animals
Method: The blood ammonia level-lowering effect of N-(1,3-dihydroxy-2-propyl)valiolamine in rats
Male SD rats aged […] were fed either on a regular diet or a high-protein powder diet containing 61% of casein for 7 days. N-(1,3-dihydroxy-2-propyl)valiolamine (hereinafter referred to shortly as AO-128) was added to the high-protein diet at final concentrations of 10 and 50 ppm. The animals had free access to the diets and the mean daily food intake was approximately 18 g/day. On the 7th day, laparotomy was performed under ether anesthesia and the blood was collected from the abdominal aorta. The blood ammonia level was estimated using an assay kit, a product of WAKO.

[3] = Acute oral toxicity in mice; conditions: mouse, in vivo, mice (NRMI)
[4] = diabetics accompanied with hepatocirrhosis; cited from earlier work
[5] = system: α-glucosidase; conditions: cited from earlier work

Compound | LD50 [1] [mg/kg] | Blood ammonia level ([2]; 10 ppm AO-128 in high-protein diet (61% casein)) [µg/dL] | Blood ammonia level ([2]; 50 ppm AO-128 in high-protein diet (61% casein)) [µg/dL] | blood ammonia level versus high-protein diet control group ([2]; AO-128 treated high-protein diet group, 10 and 50 ppm) | LD50 [3] [mg/kg] | effect on blood ammonia level [4] | α-glucosidase inhibitory activity [5]
OCC(CO)N[C@H]1C[C@](O)(CO)[C@@H](O)[C@H](O)[C@H]1O [AO-128, N-(1,3-dihydroxy-2-propyl)valiolamine] | ~20000 | 88 ± 7 | 90 ± 8 | overtly lower blood ammonia level than the high-protein diet control group | 14700 to 21500 | – | –
C[C@H]1O[C@H](O[C@H]2[C@H](O)[C@@H](O)[C@@H](O[C@H]3[C@H](O)[C@@H](O)C(O)O[C@@H]3CO)O[C@@H]2CO)[C@H](O)[C@@H](O)[C@@H]1N[C@H]1C=C(CO)[C@@H](O)[C@H](O)[C@H]1O (stereo partly shown) [acarbose] | – | – | – | – | – | lowers the blood ammonia level | α-glucosidase inhibitor
